Data from publication PMC8371461 (Frontiers in Pharmacology, 2021).

Columns and labels:
Test in all cases: kinome scan
Format in all cases: binding
[1] = target: T1, ABL1(F317L)-phosphorylated (Homo sapiens, UniProt P00519, F317L); conditions: 10 µM
T1 construct: purchased DiscoverX (KINOMEscan)

[2] = target: T2, ABL1(F317I)-phosphorylated (Homo sapiens, UniProt P00519, F317I); conditions: 10 µM
T2 construct: purchased DiscoverX (KINOMEscan)

RET = target: T3, RET (Homo sapiens, UniProt P07949); conditions: 10 µM
T3 construct: purchased DiscoverX (KINOMEscan)

FRK = target: T4, FRK (Homo sapiens, UniProt P42685); conditions: 10 µM
T4 construct: purchased DiscoverX (KINOMEscan)

DMPK2 = target: T5, DMPK2 (Homo sapiens, UniProt Q6DT37); conditions: 10 µM
T5 construct: purchased DiscoverX (KINOMEscan)

CAMK1D = target: T6, CAMK1D (Homo sapiens, UniProt Q8IU85); conditions: 10 µM
T6 construct: purchased DiscoverX (KINOMEscan)

NDR2 = target: T7, NDR2 (Homo sapiens, UniProt Q9Y2H1); conditions: 10 µM
T7 construct: purchased DiscoverX (KINOMEscan)

CAMKK2 = target: T8, CAMKK2 (Homo sapiens, UniProt Q96RR4); conditions: 10 µM
T8 construct: purchased DiscoverX (KINOMEscan)

TTK = target: T9, TTK (Homo sapiens, UniProt P33981); conditions: 10 µM
T9 construct: purchased DiscoverX (KINOMEscan)

HPK1 = target: T10, HPK1 (Homo sapiens, UniProt Q92918); conditions: 10 µM
T10 construct: purchased DiscoverX (KINOMEscan)

NLK = target: T11, NLK (Homo sapiens, UniProt Q9UBE8); conditions: 10 µM
T11 construct: purchased DiscoverX (KINOMEscan)

ACVR1B = target: T12, ACVR1B (Homo sapiens, UniProt P36896); conditions: 10 µM
T12 construct: purchased DiscoverX (KINOMEscan)

PAK7 = target: T13, PAK7 (Homo sapiens, UniProt Q9P286); conditions: 10 µM
T13 construct: purchased DiscoverX (KINOMEscan)

TLK2 = target: T14, TLK2 (Homo sapiens, UniProt Q86UE8); conditions: 10 µM
T14 construct: purchased DiscoverX (KINOMEscan)

MARK3 = target: T15, MARK3 (Homo sapiens, UniProt P27448); conditions: 10 µM
T15 construct: purchased DiscoverX (KINOMEscan)

SRC = target: T16, SRC (Homo sapiens, UniProt P12931); conditions: 10 µM
T16 construct: purchased DiscoverX (KINOMEscan)

GAK = target: T17, GAK (Homo sapiens, UniProt O14976)
T17 construct: T7 phage fusion (kinase-tagged phage); purchased DiscoverX; host or cells: BL21-derived E. coli (T7 phage)
T17 sequence (O14976 1-1311): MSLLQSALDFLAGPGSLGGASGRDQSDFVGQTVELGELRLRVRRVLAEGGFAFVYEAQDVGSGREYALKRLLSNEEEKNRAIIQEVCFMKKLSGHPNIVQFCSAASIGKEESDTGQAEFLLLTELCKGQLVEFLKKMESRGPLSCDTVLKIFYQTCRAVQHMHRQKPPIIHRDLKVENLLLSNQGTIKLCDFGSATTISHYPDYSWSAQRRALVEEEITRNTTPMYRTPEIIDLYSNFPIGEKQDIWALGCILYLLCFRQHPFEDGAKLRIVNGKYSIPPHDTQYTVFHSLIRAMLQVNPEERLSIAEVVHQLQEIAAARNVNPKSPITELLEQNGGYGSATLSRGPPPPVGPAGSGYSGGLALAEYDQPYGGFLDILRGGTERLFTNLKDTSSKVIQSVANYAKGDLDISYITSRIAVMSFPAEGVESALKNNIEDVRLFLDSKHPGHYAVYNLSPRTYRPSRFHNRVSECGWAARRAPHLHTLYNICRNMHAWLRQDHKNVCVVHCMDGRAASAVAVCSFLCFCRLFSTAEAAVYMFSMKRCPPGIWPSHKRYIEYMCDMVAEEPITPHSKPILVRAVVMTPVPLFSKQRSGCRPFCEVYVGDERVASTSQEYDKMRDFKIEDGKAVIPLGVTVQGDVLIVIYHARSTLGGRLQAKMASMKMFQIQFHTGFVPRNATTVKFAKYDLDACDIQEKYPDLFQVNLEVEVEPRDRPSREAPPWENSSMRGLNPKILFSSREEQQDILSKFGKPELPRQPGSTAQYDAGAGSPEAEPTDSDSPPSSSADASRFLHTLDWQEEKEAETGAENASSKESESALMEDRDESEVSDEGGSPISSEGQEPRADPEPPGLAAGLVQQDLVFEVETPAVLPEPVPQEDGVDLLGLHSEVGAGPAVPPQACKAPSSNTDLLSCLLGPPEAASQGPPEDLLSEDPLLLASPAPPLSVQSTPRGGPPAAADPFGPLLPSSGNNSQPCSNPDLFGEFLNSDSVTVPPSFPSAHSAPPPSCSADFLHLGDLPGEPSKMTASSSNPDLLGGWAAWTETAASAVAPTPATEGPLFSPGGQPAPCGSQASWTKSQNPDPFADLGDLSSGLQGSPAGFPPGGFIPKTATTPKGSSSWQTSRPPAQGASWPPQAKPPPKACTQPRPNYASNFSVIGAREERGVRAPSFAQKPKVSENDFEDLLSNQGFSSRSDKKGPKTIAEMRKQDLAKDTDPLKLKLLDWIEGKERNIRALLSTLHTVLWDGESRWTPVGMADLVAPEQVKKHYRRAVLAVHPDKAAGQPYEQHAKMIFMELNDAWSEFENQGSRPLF

MEK1 = target: T18, MEK1 (Homo sapiens, UniProt Q02750); conditions: 10 µM
T18 construct: purchased DiscoverX (KINOMEscan)

AMPK-alpha2 = target: T19, AMPK-alpha2 (Homo sapiens, UniProt P54646); conditions: 10 µM
T19 construct: purchased DiscoverX (KINOMEscan)

MYO3B = target: T20, MYO3B (Homo sapiens, UniProt Q8WXR4); conditions: 10 µM
T20 construct: purchased DiscoverX (KINOMEscan)

[3] = target: T21, RSK1(Kin.Dom.2-C-terminal) (Homo sapiens, UniProt Q15418); conditions: 10 µM
T21 construct: RSK1(Kin.Dom.2-C-terminal); purchased DiscoverX (KINOMEscan)

[4] = target: T22, ABL1(T315I)-phosphorylated (Homo sapiens, UniProt P00519, T315I); conditions: 10 µM
T22 construct: purchased DiscoverX (KINOMEscan)

DRAK2 = target: T23, DRAK2 (Homo sapiens, UniProt O94768); conditions: 10 µM
T23 construct: purchased DiscoverX (KINOMEscan)

LRRK2 = target: T24, LRRK2 (Homo sapiens, UniProt Q5S007); conditions: 10 µM
T24 construct: purchased DiscoverX (KINOMEscan)

LTK = target: T25, LTK (Homo sapiens, UniProt P29376); conditions: 10 µM
T25 construct: purchased DiscoverX (KINOMEscan)

T9 sequence (P33981 whole entry): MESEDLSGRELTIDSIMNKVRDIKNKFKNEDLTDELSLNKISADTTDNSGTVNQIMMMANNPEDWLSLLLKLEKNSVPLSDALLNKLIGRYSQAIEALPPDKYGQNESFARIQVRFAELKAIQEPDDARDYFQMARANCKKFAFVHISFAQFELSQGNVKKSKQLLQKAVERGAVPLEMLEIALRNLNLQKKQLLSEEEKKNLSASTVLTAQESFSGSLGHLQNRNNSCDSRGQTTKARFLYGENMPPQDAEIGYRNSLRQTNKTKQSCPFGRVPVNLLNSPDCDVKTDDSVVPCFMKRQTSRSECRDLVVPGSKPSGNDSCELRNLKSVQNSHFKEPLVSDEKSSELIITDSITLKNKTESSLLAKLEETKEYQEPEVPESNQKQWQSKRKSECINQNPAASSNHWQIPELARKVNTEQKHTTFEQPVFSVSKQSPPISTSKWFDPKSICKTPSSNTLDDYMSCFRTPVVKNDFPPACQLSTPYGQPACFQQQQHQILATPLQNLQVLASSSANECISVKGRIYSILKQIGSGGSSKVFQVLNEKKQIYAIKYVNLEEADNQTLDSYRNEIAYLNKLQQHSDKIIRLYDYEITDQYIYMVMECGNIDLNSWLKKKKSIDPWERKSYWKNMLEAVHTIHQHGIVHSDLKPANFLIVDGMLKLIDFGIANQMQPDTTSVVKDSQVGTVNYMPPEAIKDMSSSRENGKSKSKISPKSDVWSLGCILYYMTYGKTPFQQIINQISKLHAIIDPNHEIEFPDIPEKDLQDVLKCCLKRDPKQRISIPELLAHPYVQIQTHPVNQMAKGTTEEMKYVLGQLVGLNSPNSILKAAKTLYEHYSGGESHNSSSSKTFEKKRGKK
T13 sequence (Q9P286 whole entry): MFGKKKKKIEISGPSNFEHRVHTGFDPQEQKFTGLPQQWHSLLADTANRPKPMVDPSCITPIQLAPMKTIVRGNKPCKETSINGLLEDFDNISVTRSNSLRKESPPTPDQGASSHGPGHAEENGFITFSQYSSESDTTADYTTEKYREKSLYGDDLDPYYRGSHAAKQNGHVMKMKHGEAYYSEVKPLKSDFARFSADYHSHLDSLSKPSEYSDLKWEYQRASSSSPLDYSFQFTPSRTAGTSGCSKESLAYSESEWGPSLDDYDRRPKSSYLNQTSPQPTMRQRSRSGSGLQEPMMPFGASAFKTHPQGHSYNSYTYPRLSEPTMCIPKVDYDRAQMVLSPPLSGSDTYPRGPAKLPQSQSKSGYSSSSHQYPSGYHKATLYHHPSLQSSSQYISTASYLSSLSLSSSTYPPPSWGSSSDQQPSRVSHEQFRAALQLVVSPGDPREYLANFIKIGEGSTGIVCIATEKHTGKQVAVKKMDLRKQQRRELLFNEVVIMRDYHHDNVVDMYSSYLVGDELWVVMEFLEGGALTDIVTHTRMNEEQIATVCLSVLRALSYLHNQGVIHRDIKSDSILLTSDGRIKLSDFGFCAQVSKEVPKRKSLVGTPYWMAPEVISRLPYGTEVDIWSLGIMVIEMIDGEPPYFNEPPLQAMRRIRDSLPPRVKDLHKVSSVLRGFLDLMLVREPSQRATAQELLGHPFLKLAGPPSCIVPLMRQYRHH
T19 sequence (P54646 whole entry): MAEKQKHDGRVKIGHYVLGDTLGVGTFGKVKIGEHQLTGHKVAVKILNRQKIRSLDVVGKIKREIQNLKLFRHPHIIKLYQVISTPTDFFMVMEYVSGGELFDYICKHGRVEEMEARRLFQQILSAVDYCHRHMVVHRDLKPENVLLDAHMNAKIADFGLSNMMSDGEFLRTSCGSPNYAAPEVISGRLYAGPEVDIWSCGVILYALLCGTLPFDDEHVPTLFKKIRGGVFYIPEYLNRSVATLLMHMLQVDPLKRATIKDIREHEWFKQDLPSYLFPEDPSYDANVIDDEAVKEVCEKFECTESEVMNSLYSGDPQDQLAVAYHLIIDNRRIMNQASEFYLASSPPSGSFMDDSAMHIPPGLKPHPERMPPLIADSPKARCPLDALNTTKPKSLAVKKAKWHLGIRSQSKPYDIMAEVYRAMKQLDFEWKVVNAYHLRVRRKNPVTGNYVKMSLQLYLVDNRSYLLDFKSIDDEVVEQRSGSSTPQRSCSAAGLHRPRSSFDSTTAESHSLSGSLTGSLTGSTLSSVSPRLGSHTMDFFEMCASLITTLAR
T23 sequence (O94768 whole entry): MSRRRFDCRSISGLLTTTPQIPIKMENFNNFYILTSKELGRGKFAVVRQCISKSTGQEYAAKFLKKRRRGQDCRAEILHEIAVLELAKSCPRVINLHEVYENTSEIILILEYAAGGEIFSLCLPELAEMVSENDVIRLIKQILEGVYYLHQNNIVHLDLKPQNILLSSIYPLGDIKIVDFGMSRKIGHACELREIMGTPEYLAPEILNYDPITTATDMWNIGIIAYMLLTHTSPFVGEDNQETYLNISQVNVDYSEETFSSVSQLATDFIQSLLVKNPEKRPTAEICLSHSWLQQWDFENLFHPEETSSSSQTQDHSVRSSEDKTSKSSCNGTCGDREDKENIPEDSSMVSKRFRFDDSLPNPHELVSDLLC
T16 sequence (P12931 whole entry): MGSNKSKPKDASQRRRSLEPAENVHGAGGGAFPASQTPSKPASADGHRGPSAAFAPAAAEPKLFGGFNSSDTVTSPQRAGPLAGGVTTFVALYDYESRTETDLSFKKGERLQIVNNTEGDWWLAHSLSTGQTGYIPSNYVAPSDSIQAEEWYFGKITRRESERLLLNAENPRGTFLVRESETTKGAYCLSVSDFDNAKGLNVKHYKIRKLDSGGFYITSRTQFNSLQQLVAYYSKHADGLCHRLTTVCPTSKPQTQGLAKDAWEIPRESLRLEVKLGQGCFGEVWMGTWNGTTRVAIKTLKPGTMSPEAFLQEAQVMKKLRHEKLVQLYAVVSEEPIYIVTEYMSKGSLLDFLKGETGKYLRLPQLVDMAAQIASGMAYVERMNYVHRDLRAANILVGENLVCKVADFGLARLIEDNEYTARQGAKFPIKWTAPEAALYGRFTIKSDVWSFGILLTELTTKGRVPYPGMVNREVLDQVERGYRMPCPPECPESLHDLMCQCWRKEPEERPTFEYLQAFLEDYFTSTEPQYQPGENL
T18 sequence (Q02750 whole entry): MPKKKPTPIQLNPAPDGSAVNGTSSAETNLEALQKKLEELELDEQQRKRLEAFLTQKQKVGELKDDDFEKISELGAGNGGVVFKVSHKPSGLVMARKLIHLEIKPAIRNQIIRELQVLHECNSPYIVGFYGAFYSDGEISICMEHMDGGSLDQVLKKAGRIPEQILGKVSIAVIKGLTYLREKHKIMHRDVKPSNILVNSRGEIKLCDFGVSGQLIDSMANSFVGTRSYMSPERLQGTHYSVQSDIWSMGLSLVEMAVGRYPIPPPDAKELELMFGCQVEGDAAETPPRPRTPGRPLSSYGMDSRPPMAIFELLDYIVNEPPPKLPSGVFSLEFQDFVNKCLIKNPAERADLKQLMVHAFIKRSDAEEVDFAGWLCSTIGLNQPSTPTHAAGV
T4 sequence (P42685 whole entry): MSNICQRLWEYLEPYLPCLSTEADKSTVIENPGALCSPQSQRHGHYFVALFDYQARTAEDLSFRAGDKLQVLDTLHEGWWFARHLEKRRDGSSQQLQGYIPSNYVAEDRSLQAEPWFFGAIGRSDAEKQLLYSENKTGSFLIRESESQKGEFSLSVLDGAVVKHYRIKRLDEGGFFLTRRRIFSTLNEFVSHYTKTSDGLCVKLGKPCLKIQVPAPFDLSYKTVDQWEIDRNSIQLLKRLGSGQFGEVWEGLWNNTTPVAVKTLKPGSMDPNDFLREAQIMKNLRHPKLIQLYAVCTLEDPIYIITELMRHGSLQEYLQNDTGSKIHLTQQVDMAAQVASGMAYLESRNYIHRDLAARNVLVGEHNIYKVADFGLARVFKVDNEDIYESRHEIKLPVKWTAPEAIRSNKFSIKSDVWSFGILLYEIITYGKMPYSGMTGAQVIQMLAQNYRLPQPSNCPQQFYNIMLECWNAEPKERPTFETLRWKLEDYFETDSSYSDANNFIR
T15 sequence (P27448 whole entry): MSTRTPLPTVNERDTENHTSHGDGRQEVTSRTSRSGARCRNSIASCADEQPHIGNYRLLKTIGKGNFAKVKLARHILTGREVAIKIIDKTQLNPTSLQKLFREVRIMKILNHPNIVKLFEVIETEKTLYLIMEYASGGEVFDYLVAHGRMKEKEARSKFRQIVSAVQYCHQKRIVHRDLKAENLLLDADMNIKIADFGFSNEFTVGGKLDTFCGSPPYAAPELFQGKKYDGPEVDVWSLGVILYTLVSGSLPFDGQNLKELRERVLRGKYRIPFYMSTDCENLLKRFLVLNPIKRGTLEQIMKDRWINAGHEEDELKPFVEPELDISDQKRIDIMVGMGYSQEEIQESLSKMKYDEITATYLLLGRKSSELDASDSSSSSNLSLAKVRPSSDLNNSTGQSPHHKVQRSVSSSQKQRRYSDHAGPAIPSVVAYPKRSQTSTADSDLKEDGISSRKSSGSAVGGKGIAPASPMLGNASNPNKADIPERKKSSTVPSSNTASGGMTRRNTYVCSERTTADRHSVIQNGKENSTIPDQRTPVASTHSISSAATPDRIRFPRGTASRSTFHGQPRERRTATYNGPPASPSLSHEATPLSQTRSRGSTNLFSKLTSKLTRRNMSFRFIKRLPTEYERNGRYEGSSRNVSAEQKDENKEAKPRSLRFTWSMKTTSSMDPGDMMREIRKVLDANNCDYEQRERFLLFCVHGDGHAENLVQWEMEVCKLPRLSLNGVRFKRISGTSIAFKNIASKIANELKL
T21 sequence (Q15418 418-675 limits assumed): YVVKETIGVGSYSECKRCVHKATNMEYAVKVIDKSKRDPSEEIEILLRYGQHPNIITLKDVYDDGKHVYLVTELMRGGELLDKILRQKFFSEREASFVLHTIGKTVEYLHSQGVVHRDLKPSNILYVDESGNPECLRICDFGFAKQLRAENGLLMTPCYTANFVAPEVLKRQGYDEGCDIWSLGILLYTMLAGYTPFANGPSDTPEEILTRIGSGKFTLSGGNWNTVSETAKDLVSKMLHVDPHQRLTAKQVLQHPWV

Q: Which results are given for `Nc1ccc(N=Nc2ccccc2)c(N)n1` [phenazopyridine, 2,6-diamino-3-(phenylazo)pyridine]?
A: kinase inhibition [1]: 64; kinase inhibition [2]: 78; kinase inhibition (RET): 100; remaining binding (% of control) (FRK): 100; kinase inhibition (DMPK2): 100; kinase inhibition (CAMK1D): 100; kinase inhibition (NDR2): 100; kinase inhibition (CAMKK2): 99; kinase inhibition (TTK): 88; kinase inhibition (HPK1): 67; kinase inhibition (NLK): 88; kinase inhibition (ACVR1B): 86; kinase inhibition (PAK7): 100; kinase inhibition (TLK2): 100; kinase inhibition (MARK3): 100; kinase inhibition (SRC): 100; remaining binding (% of control) (GAK; 10 µM): 16; remaining binding at 10 µM (GAK; read-out: % Of control): 16%; kinase inhibition (MEK1): 99; kinase inhibition (AMPK-alpha2): 84; kinase inhibition (MYO3B): 95; kinase inhibition [3]: 86; kinase inhibition [4]: 100; kinase inhibition (DRAK2): 100; kinase inhibition (LRRK2): 100; kinase inhibition (LTK): 96
